Read-outs that look alike come from different tables or passages of the source.
What was measured:
mouse cortical neuron = assay: Whole-cell patch-clamp of mouse cortical neuron, perfusion of TzGly; assay type: cell-based; details: 1 μM
Source text: FIGS. 13A and 13B: FIG. 13A depicts the structure of TzGly. […] The measurement results were obtained by the whole-cell patch-clamp method, as known and used in the art.

[1] = system: Retzius (Rz) cells in the ganglion; assay: Intracellular voltage recording of leech ganglion neuron with Xe flash irradiation; assay type: cell-based, Hirudo medicinalis; details: for action potential activity on addition to saline, before irradiation: ~100 μM in saline, no light flash; for action potential activity after light flash: pulsed Xe lamp flash, UV removed by band-pass filter at 500 nm
Protocol: Hirudo medicinalis has a central nerve cord with several ganglia, each one containing about 400 neurons arranged in a known pattern. (W.-R. Schlue et al., 1980, J. Exp. Biol., 82:23-34). An entire ganglion was mounted on a dish. The transmembrane potential for a single cell (a neuron) in the ganglion was recorded by inserting inside the neuron a glass micropipet with a micrometer-sized end, filled with saturated aqueous KCl that acts as a luggin bridge for an Ag/AgCl electrode. Another Ag/AgCl electrode was used as a reference. The signal was taken with an AM-System 1600 amplifier, and the entire setup was covered with a Faraday cage. A 12 bit A/D acquisition card was used to digitize the data using an ad-hoc program written in QuickBasic.
Low Ca^2+-high Mg^2+ saline solution (NaCl, 102 mM; KCl, 4 mM; CaCl2: 1 mM; and MgCl2: 10 mM; Tris base, pH 5.4 adjusted to 7.4) was perfused through the dish. […] A pulsed Xe lamp located under the dish was used to irradiate the solution. UV light was removed using a band-pass filter at 500 nm.
After impaling the cell with an electrode, many experiments were performed on the same cell to ensure reproducibility. […] 300 seconds later, at 5500 s, a light flash was directed to the ganglion.

[2] = UV-vis spectra of Ru(bpy)2(4AP)2 before and after photolysis; dark stability and recombination; assay type: physicochemical
Protocol: The photoproducts after exposure to light were Ru(bpy)2(4AP)(H2O) and free 4AP.
(§1) UV-vis spectra in water were obtained with an HP 8453 diode array spectrophotometer. RMN ^1H spectra were obtained using a Bruker 500 MHz equipment. CV measurements were performed with a PAR 273A potentiostat. Irradiation was effected by means of a pulsed Xe lamp, (pulse energy ˜0.5 J), with a low-pass filter at 480 nm. Irradiation using a 473 nm DPSS laser gave similar results.

[3] = Cyclic voltammetry in water, RuIII/RuII redox potential; assay type: physicochemical; details: measured in water
Protocol: The supporting electrolyte was KNO3 (1 M). dE/dt=100 mV/s in glassy carbon electrode.
as §1
(§2) (See, e.g., E. S. Dodsworth et al., 1986, Chem. Phys. Lett., 124:152-158). The photoactivity of these compounds has been explained in terms of a reaction pathway that involves the transition between the MLCT state to a lower-energy d-d state, which promotes ligand release. There is a direct correspondence between the energy of the MLCT transition and the quantum yield of the photoreaction. For [Ru(bpy)2(4AP)CH3CN]^2+, the photoreaction yield is about φPR=0.4. Since [Ru(bpy)2(4AP)2]Cl2 presents a red-shifted band, a lower photoreaction yield is expected. An estimate based on early experiments leads to an estimate of φPR≅0.02 at 473 nm.

[4] = Quantum yield of the photoreaction; assay type: physicochemical
Source text: as §2

[5] = 1H NMR before and after irradiation with visible light (photorelease of 4AP); assay type: physicochemical; details: after irradiation with visible light, from NMR signal integration
Protocol: as §1
Although at pH 7 the spectrum of the irradiated complex is very similar to that of the original complex, a diminished shoulder at 470 nm becomes evident. To determine the nature of the photoreaction, NMR spectra were taken before and after irradiation with visible light. […] After irradiation, this signal decreased, and two new signals appeared at lower fields: one corresponding to the free ligand (m3), and the other corresponding to the aquo-4AP complex (m2), indicating photorelease of the 4AP. These two latter signals integrated for 0.30 and 0.27 of the initial signal, which corresponds to a photoreaction of 60%.

[6] = Photorelease of TzGly by localized irradiation; assay type: physicochemical; details: irradiation at 470 nm, light spot diameter <1 micron

NC(C(=O)O)c1nnn[nH]1 (racemic) [TzGly, (RS)-(tetrazol-5-yl)glycine]
neuron spiking on addition via perfusion (mouse cortical neuron): spiking of a mouse cortical neuron

[Cl][Ru][Cl].c1ccc(-c2ccccn2)nc1.c1ccc(-c2ccccn2)nc1.c1ccc(-c2ccccn2)nc1 [Ru(bpy)3Cl2, reference compound]
action potential activity on addition to saline, before irradiation [1]: without significant changes in activity
action potential activity after light flash ([1]; ~100 μM): after a short time the activity decreased to the basal level

[Ru(bpy)2(4AP)2]Cl2
time without dark decomposition ([2]; in the dark, UV-vis): more than 20 hours
4AP recombination ([2]; irradiated solution after 7 hours in the dark): less than 4%
redox potential of the couple RuIII/RuII [3]: 0.76 V versus Ag/AgCl
action potential activity on addition to saline, before irradiation [1]: the activity remained unchanged
action potential activity after light flash ([1]; ~100 μM): sudden activity was recorded and it remained high after 300 s
action potential activity after second light pulse ([1]; ~100 μM, second light pulse at 6750 s): an even higher activity
photoreaction yield φPR ([4]; at 473 nm, estimate based on early experiments): ~0.02
photoreaction (photorelease of 4AP) [5]: 60%

[Ru(bpy)2(4AP)CH3CN]^2+
photoreaction yield φPR [4]: ~0.4

[Ru(bpy)2(TzGly)(py)]Cl2
photorelease on irradiation [6]: photoreleased TzGly

From US9688708B2, “Photolabile compounds” (The Trustees of Columbia University In The City of New York, priority 2003, dated 2017)
